Assays:
[1] = target: T1, ATPase family AAA domain-containing protein 2B (Homo sapiens, UniProt Q9ULI0); assay: Binding affinity to human ATAD2B BRD assessed as dissociation constant by isothermal titration calorimetry
T1 sequence (Q9ULI0 whole entry): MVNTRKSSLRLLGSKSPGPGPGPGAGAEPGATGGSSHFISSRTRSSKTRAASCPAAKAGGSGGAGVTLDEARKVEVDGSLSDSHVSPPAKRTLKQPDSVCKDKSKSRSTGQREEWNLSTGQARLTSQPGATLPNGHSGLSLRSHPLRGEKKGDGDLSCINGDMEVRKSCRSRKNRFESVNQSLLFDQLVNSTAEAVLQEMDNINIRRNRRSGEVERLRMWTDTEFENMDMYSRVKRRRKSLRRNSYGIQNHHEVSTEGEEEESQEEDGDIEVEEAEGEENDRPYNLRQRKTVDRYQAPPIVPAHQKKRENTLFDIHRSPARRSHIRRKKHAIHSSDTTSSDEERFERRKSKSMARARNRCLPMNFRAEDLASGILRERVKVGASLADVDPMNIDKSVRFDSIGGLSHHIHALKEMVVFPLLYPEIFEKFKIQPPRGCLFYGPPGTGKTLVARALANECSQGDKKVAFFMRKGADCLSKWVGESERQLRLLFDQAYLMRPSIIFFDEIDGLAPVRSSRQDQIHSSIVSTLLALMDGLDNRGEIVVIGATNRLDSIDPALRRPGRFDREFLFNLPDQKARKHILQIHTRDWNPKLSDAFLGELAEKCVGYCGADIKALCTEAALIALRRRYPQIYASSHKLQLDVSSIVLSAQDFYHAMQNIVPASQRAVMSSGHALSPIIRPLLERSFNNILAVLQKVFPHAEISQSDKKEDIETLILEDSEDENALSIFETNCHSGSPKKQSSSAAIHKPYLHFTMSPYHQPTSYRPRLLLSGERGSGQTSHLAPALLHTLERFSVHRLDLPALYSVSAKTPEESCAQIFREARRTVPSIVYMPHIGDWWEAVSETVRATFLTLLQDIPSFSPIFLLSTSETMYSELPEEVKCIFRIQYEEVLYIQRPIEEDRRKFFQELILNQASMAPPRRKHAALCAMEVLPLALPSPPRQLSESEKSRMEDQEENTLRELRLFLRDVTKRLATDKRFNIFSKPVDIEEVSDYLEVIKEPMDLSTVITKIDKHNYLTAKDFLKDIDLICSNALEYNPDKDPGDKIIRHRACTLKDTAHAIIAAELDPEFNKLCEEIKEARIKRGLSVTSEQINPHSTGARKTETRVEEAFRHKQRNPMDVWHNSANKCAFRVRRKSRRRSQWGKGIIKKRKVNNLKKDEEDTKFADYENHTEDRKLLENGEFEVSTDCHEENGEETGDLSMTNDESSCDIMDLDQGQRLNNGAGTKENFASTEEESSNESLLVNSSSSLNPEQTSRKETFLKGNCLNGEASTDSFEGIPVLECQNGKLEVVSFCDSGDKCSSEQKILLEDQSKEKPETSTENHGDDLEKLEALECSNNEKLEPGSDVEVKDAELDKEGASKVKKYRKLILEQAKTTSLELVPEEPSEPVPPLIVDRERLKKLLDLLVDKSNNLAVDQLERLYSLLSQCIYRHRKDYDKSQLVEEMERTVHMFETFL

[2] = target: T2, ATPase family AAA domain-containing protein 2 (Homo sapiens, UniProt Q6PL18); assay: Binding affinity to human ATAD2 BRD assessed as dissociation constant by isothermal titration calorimetry
T2 sequence (Q6PL18 whole entry): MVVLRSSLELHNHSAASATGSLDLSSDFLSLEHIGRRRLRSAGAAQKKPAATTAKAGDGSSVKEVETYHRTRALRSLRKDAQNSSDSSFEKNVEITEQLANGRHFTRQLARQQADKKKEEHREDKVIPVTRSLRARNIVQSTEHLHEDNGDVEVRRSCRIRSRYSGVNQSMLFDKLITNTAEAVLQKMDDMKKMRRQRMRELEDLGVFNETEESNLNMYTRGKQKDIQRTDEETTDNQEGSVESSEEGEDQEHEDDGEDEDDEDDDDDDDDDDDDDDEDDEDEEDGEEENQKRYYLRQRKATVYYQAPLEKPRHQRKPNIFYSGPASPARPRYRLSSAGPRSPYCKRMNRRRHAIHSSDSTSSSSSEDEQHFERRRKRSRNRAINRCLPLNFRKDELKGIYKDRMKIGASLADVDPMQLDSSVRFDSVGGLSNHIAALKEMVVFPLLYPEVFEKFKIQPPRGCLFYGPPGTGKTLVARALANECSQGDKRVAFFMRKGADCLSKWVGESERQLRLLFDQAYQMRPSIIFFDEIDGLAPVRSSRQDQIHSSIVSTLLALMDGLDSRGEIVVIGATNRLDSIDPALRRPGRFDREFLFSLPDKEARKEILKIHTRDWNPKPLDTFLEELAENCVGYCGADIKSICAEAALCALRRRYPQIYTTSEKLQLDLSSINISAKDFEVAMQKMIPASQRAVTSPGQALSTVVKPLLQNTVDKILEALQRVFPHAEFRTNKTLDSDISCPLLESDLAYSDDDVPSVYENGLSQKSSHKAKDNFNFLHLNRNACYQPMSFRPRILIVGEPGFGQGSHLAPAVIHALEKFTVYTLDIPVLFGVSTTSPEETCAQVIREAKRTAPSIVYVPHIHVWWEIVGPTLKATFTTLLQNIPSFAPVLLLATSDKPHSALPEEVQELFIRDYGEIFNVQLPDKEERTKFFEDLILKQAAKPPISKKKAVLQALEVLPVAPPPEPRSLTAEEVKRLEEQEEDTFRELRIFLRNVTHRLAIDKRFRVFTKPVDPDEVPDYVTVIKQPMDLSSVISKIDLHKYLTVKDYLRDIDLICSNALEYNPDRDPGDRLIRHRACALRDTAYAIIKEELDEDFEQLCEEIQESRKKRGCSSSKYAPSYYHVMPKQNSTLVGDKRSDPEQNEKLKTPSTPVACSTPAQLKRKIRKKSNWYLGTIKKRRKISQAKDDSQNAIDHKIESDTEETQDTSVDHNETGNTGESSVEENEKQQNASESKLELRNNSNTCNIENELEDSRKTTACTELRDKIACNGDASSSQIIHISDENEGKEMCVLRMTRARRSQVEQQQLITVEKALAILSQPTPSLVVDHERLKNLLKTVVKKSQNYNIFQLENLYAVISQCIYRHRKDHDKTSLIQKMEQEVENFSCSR

| Molecule | Kd [1] | Kd [2] |
| --- | --- | --- |
| CC(=O)NCCCC[C@H](NC(=O)[C@H](CO)NC(=O)[C@H](CCCNC(=N)N)NC(=O)CNC(=O)[C@@H](N)CO)C(=O)NCC(=O)NCC(=O)N[C@@H](CCCCN)C(=O)NCC(=O)N[C@@H](CC(C)C)C(=O)NCC(=O)N[C@@H](CCCCN)C(=O)NCC(=O)NCC(=O)N[C@@H](C)C(=O)O | Not Active | Not Active |
| CC(=O)NCCCC[C@H](NC(=O)[C@H](CC(=O)O)NC(=O)[C@H](CCCNC(=N)N)NC(=O)CNC(=O)[C@@H](N)CO)C(=O)NCC(=O)NCC(=O)N[C@@H](CCCCN)C(=O)NCC(=O)N[C@@H](CC(C)C)C(=O)NCC(=O)N[C@@H](CCCCN)C(=O)NCC(=O)NCC(=O)N[C@@H](C)C(=O)O | Not Active | Not Active |
| H-AGGK(Ac)AGK(Ac)DSGKAKTK-OH | Not Active | Not Active |
| H-AGGK(Ac)AGKDSGKAKTK-OH |  | Not Active |
| H-AGGKAGKDSGKAKTK-OH | Not Active | Not Active |
| H-SGRGKTGGKARAKAKSR-OH | Not Active | Not Active |
